Data published in publication PMC4859520, “Binding Properties of General Odorant Binding Proteins from the Oriental Fruit Moth, Grapholita molesta (Busck) (Lepidoptera: Tortricidae)” (PLoS ONE, 2016).
Entries after “also recorded” stand apart in the source; their conditions may differ. Read-outs that look alike come from different tables or passages of the source.

Tests used:
[1] = molecular target: GmolGOBP1 (Grapholita molesta, UniProt H9XTU5); experiment: Fluorescence competitive binding assay with probe 1-NPN, rGmolGOBP1; settings: for binding to rGmolGOBP1 (in words): competitive binding with 1-NPN
Protocol: (§1) Fluorescence binding assays were performed on a Hitachi (Tokyo, Japan) F-4500 fluorescence spectrophotometer with a 1 cm light path fluorimeter quartz cuvette. Both of the slit widths for excitation and emission were 10 nm. 1-N-phenyl-naphthylamine (1-NPN) was dissolved in HPLC purity grade methanol to yield a 1 mM stock solution. […] The probes were excited at 337 nm and emission spectra were recorded between 370 and 550 nm. […] Binding data were collected in three independent measurements.
(§2) Dissociation constants of the complex GmolGOBPs/1-NPN (K1-NPN) were calculated by a nonlinear regression binding curve, using Prism 5.0 (GraphPad Software Inc.).

[2] = molecular target: GmolGOBP2 (Grapholita molesta, UniProt H9XTU6); experiment: Fluorescence competitive binding assay with probe 1-NPN, rGmolGOBP2 wild-type
Protocol: as §1, §2

[3] = molecular target: GmolGOBP2 T9A (Grapholita molesta, UniProt H9XTU6, T29A); experiment: Fluorescence competitive binding assay, GmolGOBP2 mutant T9A; settings: for decrease in affinity of T9A mutant: T9A versus wild-type rGmolGOBP2
Protocol: (§3) Fluorescence binding assays were performed on a Hitachi (Tokyo, Japan) F-4500 fluorescence spectrophotometer with a 1 cm light path fluorimeter quartz cuvette. Both of the slit widths for excitation and emission were 10 nm. 1-N-phenyl-naphthylamine (1-NPN) was dissolved in HPLC purity grade methanol to yield a 1 mM stock solution. A 2 μM solution of the protein in 20 mM Tris-HCl, pH 7.4, was titrated with aliquots of 1 mM 1-NPN to final concentrations of 1, 2, 4, 6, 8, 10, 12, 14, 16, 18, and 22 μM. The probes were excited at 337 nm and emission spectra were recorded between 370 and 550 nm. All ligands (S1 File) used in competitive binding assays were also dissolved in HPLC purity grade methanol. The final concentrations of sex pheromones were between 1 and 22 μM for each rGmolGOBP protein, whereas the concentrations of 30 synthetic plant volatiles to rGmolGOBP1 and 2 were up to 64 and 100 μM, respectively. Binding data were collected in three independent measurements.
(§4) Dissociation constants of the complex GmolGOBPs/1-NPN (K1-NPN) were calculated by a nonlinear regression binding curve, using Prism 5.0 (GraphPad Software Inc.). The inhibition constants (Ki) of the competitors were computed from the corresponding IC50 values using the equation: Ki = [IC50]/(1+[1−NPN]/K1−NPN), where [1−NPN] is the free concentration of 1−NPN and K1-NPN is the dissociation constant of the complex protein/1-NPN.
(§5) Gene-specific primers were designed in accordance with the recommended protocols of the TaKaRa MutanBEST Kit (TaKaRa, Shiga, Japan). The GmolGOBP2 coding sequence was mutated to create the three mutants GmolGOBP2 T9A (threonine to alanine at position 9), GmolGOBP2 V111A (valine to alanine at position 111), and GmolGOBP2 V114A (valine to alanine at position 114). Mutations were obtained using the TaKaRa MutanBEST Kit with Pyrobest DNA polymerase with the pMD19-T/GmolGOBP2 plasmid DNA as template. All plasmids containing mutations were verified by DNA sequencing. Mutated protein expression and enrichment were performed as described above for rGmolGOBP1 and 2. After determining concentrations, purified mutants were applied to verify the binding affinities with dodecanol and its analogs in fluorescence ligand-binding assays.

[4] = molecular target: GmolGOBP2 V111A (Grapholita molesta, UniProt H9XTU6, V131A); experiment: Fluorescence competitive binding assay, GmolGOBP2 mutant V111A; settings: for affinity of V111A mutant versus wild-type (in words): V111A versus wild-type rGmolGOBP2
Protocol: as §3, §4, §5

[5] = molecular target: GmolGOBP2 V114A (Grapholita molesta, UniProt H9XTU6, V134A); experiment: Fluorescence competitive binding assay, GmolGOBP2 mutant V114A; settings: for affinity of V114A mutant versus wild-type (in words): V114A versus wild-type rGmolGOBP2
Protocol: as §3, §4, §5

[6] = molecular target: rGmolPBP1; parameters: method as in earlier work; settings: cited from earlier work
[7] = molecular target: rGmolGOBP2 (Grapholita molesta, UniProt H9XTU6); experiment: Effect of pH on binding affinity of rGmolGOBP2
Protocol: Based on the fluorescence measurement experiments as described above, we further evaluated the effects of pH on the binding affinities of GmolGOBP2 to ligands; the binding of GmolGOBP2 to the representative ligand dodecanol was detected at six different pH values (4.0, 5.0, 6.8, 7.4, 8.0 and 8.8) in 20 mM Tris-HCl buffer. All the values of binding affinities were collected in three independent measurements. Data are reported as means±SEM. Difference in pH effect on binding affinity of rGmolGOBP2 was analyzed with one-way analysis of variance (ANOVA), followed by the Student-Newman-Keuls (S-N-K) test at α = 0.05. P<0.05 was considered statistically significant. For statistical analysis we used SPSS 16.0 software (SPSS Inc., Chicago, IL).

[8] = molecular target: rGmolOBP15; parameters: method as in PMID 26609640; settings: cited from earlier work
[9] = protein and 1-NPN 2 μM, pH 7.4, calculated from IC50, read-out: GmolGOBP1 Ki
[10] = protein and 1-NPN 2 μM, pH 7.4, displacing half of initial fluorescence, read-out: GmolGOBP1 IC50
[11] = protein and 1-NPN 2 μM, pH 7.4, calculated from IC50, read-out: GmolGOBP2 Ki
[12] = protein and 1-NPN 2 μM, pH 7.4, displacing half of initial fluorescence, read-out: GmolGOBP2 IC50

GmolGOBP2 V114A, sequence (H9XTU6 entry or part of it V134A): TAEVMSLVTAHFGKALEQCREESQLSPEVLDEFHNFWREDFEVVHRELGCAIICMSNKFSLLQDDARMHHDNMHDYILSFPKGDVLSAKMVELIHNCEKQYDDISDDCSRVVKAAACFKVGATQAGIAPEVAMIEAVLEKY
GmolGOBP2 T9A, sequence (H9XTU6 entry or part of it T29A): as the sequence (H9XTU6 entry or part of it V134A) above, with T9A, A114V counted along it
GmolGOBP2 V111A, sequence (H9XTU6 entry or part of it V131A): as the sequence (H9XTU6 entry or part of it V134A) above, with V111A, A114V counted along it
GmolGOBP2, sequence (H9XTU6 entry or part of it): as the sequence (H9XTU6 entry or part of it V134A) above, with A114V counted along it
rGmolGOBP2, sequence (H9XTU6 entry or part of it): as the sequence (H9XTU6 entry or part of it V134A) above, with A114V counted along it
GmolGOBP1, sequence (H9XTU5 entry or part of it): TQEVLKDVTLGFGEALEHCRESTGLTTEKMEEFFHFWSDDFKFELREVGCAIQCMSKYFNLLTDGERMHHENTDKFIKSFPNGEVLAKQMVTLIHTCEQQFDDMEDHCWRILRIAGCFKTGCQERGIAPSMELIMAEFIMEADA

Compound `CC/C=C\CCO` [Cis-3-Hexen-1-ol] has an IC50 [1] of 18.3 ± 1.55 µM and a Ki [1] of 16.8 µM.

Compound `CCCCOC(=O)CCC` [Butyl butyrate] has a Ki [1, 9] of 33.1 µM and an IC50 [1, 10] of 36 ± 2.5 µM.

In the case of `O=Cc1ccccc1` [Benzaldehyde], the IC50 [1] is reported as 35 ± 3.28 µM, the Ki [1] is reported as 32.2 µM and the IC50 [2] is reported as 91.3 ± 2.87 µM. It also gave a Ki [2] of 75.4 µM.

Compound `CCCCCCCC=O` [Octanal] has a Ki [1, 9] of 21.5 µM, an IC50 [1, 10] of 23.3 ± 1.43 µM and a Ki [2, 11] of 66.4 µM. It also gave an IC50 [2, 12] of 80.4 ± 3.79 µM.

With `CC/C=C\CCOC(C)=O` [Cis-3-Hexenyl acetate] the Ki [1, 9] was 22.4 µM and the IC50 [1, 10] was 24.3 ± 1.71 µM.

Compound `COC(=O)c1ccccc1O` [Methyl salicylate] has an IC50 [1] of 49.8 ± 6.48 µM, a Ki [1] of 45.8 µM and an IC50 [2] of 93.7 ± 5.55 µM. For the same compound, the Ki [2] was 77.3 µM.

In the case of `CCCCCCCCCC=O` [Decanal], the Ki [1, 9] is reported as 16 µM, the IC50 [1, 10] is reported as 17.4 ± 1.3 µM and the Ki [2, 11] is reported as 42.4 µM. For the same compound, the IC50 [2, 12] was 51.3 ± 3.18 µM.

`CCCCCCCCC=O` [Nonanal] showed a Ki [1, 9] of 54.4 µM, an IC50 [1, 10] of 59.2 ± 8.7 µM and a Ki [2, 11] of 75.3 µM. For the same compound, the IC50 [2, 12] was 91.2 ± 5.49 µM.

For `C=C/C(C)=C/CCC(=C)C` [α-Ocimene], the Ki [1, 9] was 12.4 µM, the IC50 [1, 10] was 13.5 ± 0.79 µM and the Ki [2, 11] was 44.1 µM. It also gave an IC50 [2, 12] of 53.4 ± 4.91 µM.

In the case of `CCCCCCCCCCCCCCCC` [Hexadecane], the “binding to rGmolGOBP1 (in words)” value [1] is reported as “very weak binding affinities”.

In the case of `CC(C)CCO` [3-Methyl-1-butanol], the Ki [1, 9] is reported as 10.7 µM and the IC50 [1, 10] is reported as 11.6 ± 0.81 µM.

With `CCCCCCCCCCO` [decanol] the Ki [2] was 15.3 ± 1 µM, the Ki [3] was 39.6 ± 2.34 µM and the “decrease in affinity of T9A mutant” value [3] was 3-5 fold. For the same compound, the Ki [4] was 11.3 ± 0.17 µM, the “affinity of V111A mutant versus wild-type (in words)” value [4] was “no differences” and the Ki [5] was 15.6 ± 0.43 µM. For the same compound, the “affinity of V114A mutant versus wild-type (in words)” value [5] was “no differences”.

Compound `CCCCC(CC)CO` (centres unmarked) [2-Ethyl-1-hexanol] has a Ki [1, 9] of 24.8 µM and an IC50 [1, 10] of 27 ± 1.81 µM.

In the case of `CCCCCCCCCCCCCC` [Tetradecane], the Ki [1, 9] is reported as 8.47 µM and the IC50 [1, 10] is reported as 9.21 ± 1.31 µM.

`CCCCOC(C)=O` [Butyl acetate] gave an IC50 [1] of 39.9 ± 2.66 µM and a Ki [1] of 36.7 µM.

In the case of `CCCCCCCCCCCCCCCCCC` [Octadecane], the “binding to rGmolGOBP1 (in words)” value [1] is reported as “very weak binding affinities”.

With `CCC/C=C\CCCCCCCOC(C)=O` [Z8-12:AC, (Z)-8-dodecenyl acetate] the “binding to rGmolGOBP1 (in words)” value [1] was “did not bind”, the Ki [2, 11] was 14.4 µM and the IC50 [2, 12] was 17.4 ± 0.87 µM. The Ki [6] was 1.1 µM.

`CCCCCC(=O)OCC` [Ethyl hexanoate] showed a Ki [1, 9] of 35 µM and an IC50 [1, 10] of 38.1 ± 3.36 µM.

With `CCCCCCCCCCCCO` [12:OH, dodecanol] the “binding to rGmolGOBP1 (in words)” value [1] was “did not bind”, the Ki [2, 11] was 1.22 µM and the IC50 [2, 12] was 1.78 ± 0.23 µM. The Ki [3] was 6.04 ± 0.17 µM, the “decrease in affinity of T9A mutant” value [3] was 3-5 fold and the Ki [4] was 1.35 ± 0.22 µM. The “affinity of V111A mutant versus wild-type (in words)” value [4] was “slightly lower affinities”, the Ki [5] was 1.78 ± 0.13 µM and the “affinity of V114A mutant versus wild-type (in words)” value [5] was “slightly lower affinities”. For the same compound, the “binding affinity of rGmolGOBP2 at pH 4.0 (in words)” value ([7]; pH 4.0, 20 mM Tris-HCl) was “weak ability”, the “binding affinity of rGmolGOBP2 at pH 7.4 (in words)” value ([7]; pH 7.4, 20 mM Tris-HCl, six pH values 4.0 to 8.8 compared) was “maximum value; also recorded: pronounced binding affinity” and the Ki [8] was 3.24 µM.
